Assays:
[1] = NOD mouse model: short chain fatty acids in caecum content and serum; assay type: in vivo; settings: NOD mice, 12 weeks; for acetate concentration in serum: compared to control animals
Source text: (§1) The mice are divided into four groups (n=8) with a control group receiving standard tap water, and the three treatment groups receiving supplementation with 2′-FL, mixture of 2′-FL and DFL (in a 4:1 ratio by weight), or 6′-SL in the drinking water, corresponding to a human daily dose of about 10 grams (calculated by metabolic rate and daily water consumption of NOD mice strains).
(§2) The mice receive the treatment for 12 weeks with bi-weekly water changes. From 12 weeks of age, the blood-glucose levels of the mice are checked weekly. Mice with blood-glucose levels above 7 mmol/l are closely monitored and euthanised (and excluded from the study) if their blood glucose levels increase to ≥12 mmol/l on two consecutive measurements.
(§3) After 12 weeks treatment the mice are euthanised, and the following are sampled; serum, pancreas, salivary glands, Haarderian lacrimal glands, extraorbital lacrimal glands, as well as caecum and colon content.
Caecum content and serum are used to measure the concentration of short chain fatty acids, namely acetate, propionate and butyrate. Faecal samples obtained at baseline together with colon content sampled after euthanasia are used for 16S rRNA genomic sequencing of the microbiota.

[2] = system: non-obese diabetic (NOD) mouse model of diabetes and Sjögren's Syndrome; experiment: NOD mouse model: histology of salivary and lacrimal glands and pancreas; assay type: in vivo; settings: NOD mice, drinking water, 12 weeks, compared to control mice; for inflammation of the salivary and lacrimal glands (exocrine glands): corresponding to a human dose of about 10 g/day
Source text: The anti-inflammatory effect of HMOs is investigated in the non-obese diabetic (NOD) mouse model of diabetes and Sjögren's Syndrome.
as §1, §2, §3
The salivary and lacrimal glands are analysed by measuring the total area of inflammatory foci in relation to the total gland size on eight (salivary glands) and two (lacrimal glands) haematoxylin and eosin-stained paraffin-embedded sections per mouse. The pancreas is similarly analysed using histological sections scoring a minimum of 25 (preferably 50) islets of Langerhans for the degree of insulitis with a score ranging from 0-3 (0=no insulitis, 1=peri-insulitis, 2=infiltratory insulitis compromising ≤50% of the islet, 3=infiltratory insulitis compromising ≥50% of the islet).

Compound	acetate concentration in serum [1]	insulitis of the pancreas [2]	inflammation of the salivary and lacrimal glands (exocrine glands) [2]	acetate concentration in caecum [1]	concentration of caecum butyrate [1]
2′-fucosyllactose [2′-FL]	increases	reduced	reduce	–	–
CC(=O)N[C@H]1[C@H]([C@H](O)[C@H](O)CO)O[C@@](OC[C@H]2O[C@@H](O[C@H]3[C@H](O)[C@@H](O)[C@H](O)O[C@@H]3CO)[C@H](O)[C@@H](O)[C@H]2O)(C(=O)O)C[C@@H]1O [6′-SL, 6′-sialyllactose]	increase	reduced	reduce	increase	increase
